From patent US20130052213A1, “NOVEL IMMUNOMODULATORY PEPTIDE” (Novozymes A/S, priority 2011, published 2013)
No end group written: not given here.

How the values were obtained:
IL-10 [1] = assay: IL-10 production from LPS-stimulated PBMC (cytometric bead array); assay type: cell-based; settings: human PBMCs stimulated with LPS 0.6 or 20 ng/ml; hBD2 100, 10 or 1 pg/ml; Dexamethason 3.5 ng/ml; Infliximab 1 μg/ml; 24 hours
Protocol: (§1) Peripheral blood was drawn from healthy volunteers (with approval from the relevant ethical committee in Denmark). Heparinized blood was diluted 1/1 v/v with RPMI and were subjected to Ficoll density centrifugation within 2 h of drawing. Plasma was collected from the top from individual donors and was kept on ice until it was used at 2% in the culture medium (autologous culture medium). Isolated PBMC were resuspended in autologous culture medium and seeded in 96-well culture plates with 255.000 cells per well in a total of 200 μl. PBMC from the same donor were stimulated with 100, 10 or 1 pg/ml of hBD2 (either full-length or cleaved) either alone or together with LPS at 0.6 ng/ml or 20 ng/ml (E. coli, O111:B4, Sigma L4391), as a control on down-regulation of inflammatory cytokines 3.5 ng/ml Dexamethason (Sigma D8893) and 1 μg/ml Infliximab (Centocur B. V., NCI039843LA) was included. The concentrations of these compounds were based on initial titration studies, where the highest possible concentration without effect of viability was used. The supernatants were collected after incubation at 37° C. for 24 hours, and stored at −80° C.° until cytokine measurement. Viability was measured by Alamar Blue (Biosource, DALL 1100) to be sure that anti-inflammatory effects were not due to toxicity.
TNF and IL-10 production in supernatants was measured by flow cytometry with a human inflammation cytometric bead array (CBA) according to manufacturer's instructions (BDBioSciences) on a FACSarray flow cytometer (BDBiosciences).
All experiments were performed at least twice on several donors, with representative results shown. The data presented are expressed as mean plus/minus standard deviation (SD). Statistical significance was determined by 2-way ANOVA with the variables being treatment (hBD2, dexamethazone, etc.) and stimulation (LPS) followed by Bonferroni post-test as reported in the table legends. Differences were considered significant for p<0.05.

TNF [2] = assay: TNF production from LPS-stimulated PBMC (cytometric bead array); assay type: cell-based, human; settings: for TNF production (FIG. 2): human PBMCs stimulated with LPS 0.6 or 20 ng/ml, hBD2 100, 10 or 1 pg/ml, 24 hours
Protocol: as §1, with “toxicity. TNF and IL-10 production in supernatants was measured by flow cytometry with a human inflammation cytometric bead array (CBA) according to manufacturer's instructions (BDBioSciences) on a FACSarray flow cytometer (BDBiosciences). All experiments were performed at least twice on several donors, with representative results shown. The data presented are expressed as mean plus/minus standard deviation (SD). Statistical significance was determined by 2-way ANOVA with the variables being treatment (hBD2, dexamethazone, etc.) and stimulation (LPS) followed by Bonferroni post-test as reported in the table legends. Differences were considered significant for p<0.05.” for “toxicity.”

TNF [3] = settings: human PBMCs stimulated with LPS or another TLR ligand; cited from earlier work
IL-10 [4] = settings: human PBMCs stimulated with LPS or another TLR ligand; cited from earlier work
rheumatoid arthritis = settings: WO 2010/007168; cited from earlier work

Substance | IL-10 production (FIG. 1) (IL-10 [1]) | anti-inflammatory activity in vitro compared with full-length hBD2 (FIGS. 1 and 2) (TNF [2]; human PBMC stimulated with LPS, TNF and IL-10 read-outs) | potency relative to full length hBD2 (FIG. 2) (TNF [2]; human PBMC, TNF production, at some concentrations) | TNF production (FIG. 2) (TNF [2]) | effect on TNF, previously seen (WO 2010/007166) (TNF [3]) | effect on IL-10, previously seen (WO 2010/007166) (IL-10 [4]) | therapeutic potential in animal model of rheumatoid arthritis (rheumatoid arthritis)
PVTCLKSGAICHPVFCPRRYKQIGTCGLPGTKCCKKP [cleaved hBD2] | significantly induced IL-10 production | same anti-inflammatory activity in vitro as full-length hBD2 | more potent than full length human beta-defensin 2 | significantly reduced TNF production |  |  | 
full-length hBD2: full length human beta defensin 2, produced recombinantly in E. coli (GIGDPVTCLKSGAICHPVFCPRRYKQIGTCGLPGTKCCKKP; ends and bridges not checked; cysteine pairing not given here; listed as Homo sapiens) | significantly induced IL-10 production |  |  | significantly reduced TNF production | downregulation of TNF | upregulation of IL-10 | has shown therapeutic potential
Infliximab: anti-TNF antibody, control for anti-inflammatory effects | down-regulate IL-10 |  |  |  |  |  | 
